Measured values published in ChEMBL document CHEMBL5512674, “Novel Acyl Thiourea-Based Hydrophobic Tagging Degraders Exert Potent Anti-Influenza Activity through Two Distinct Endonuclease Polymerase Acidic-Targeted Degradation Pathways” (J Med Chem, 2024).
Activity calls are given as the source filed them. The calls are words filed in the database; no cut-off is given here.

Assays:
[1] = target: T1, von Hippel-Lindau disease tumor suppressor/Polymerase basic protein 2 (Influenza A virus (strain A/Puerto Rico/8/1934 H1N1)) (UniProt P40337+P03428); experiment: PROTAC activity at Influenza A virus A/WSN/33(H1N1) flag tagged Polymerase basic protein 2/VHL (unknown origin) expressed in HEK293T cells assessed as degradation of PB2 expression at 10 ug/ml incubated for 24 hrs by Western blotting analysis; format: cell-based; conditions: dose 10.0 µg/ml
[2] = Selectivity index, ratio of CC50 for cytotoxicity against human HEK293T cells to EC50 for anti-influenza activity against Influenza A virus A/WSN/33(H1N1) infected in HEK293T cells assessed as reduction in virus-induced cytopathic effect; format: toxicity, cell-based; conditions: read-out: Ratio CC50/EC50
Influenza A virus [3] = experiment: Anti-influenza activity against Influenza A virus A/WSN/33(H1N1) infected in HEK293T cells assessed as reduction in virus-induced cytopathic effect incubated for 48 hrs by CCK-8 assay; format: functional, organism-based; conditions: HEK-293T
[4] = Cytotoxicity against human HEK293T cells assessed as reduction in cell viability incubated for 48 hrs by CCK-8 assay; format: toxicity, cell-based, HEK-293T
[5] = target: T2, von Hippel-Lindau disease tumor suppressor/Polymerase basic protein 1 (Influenza A virus (strain A/Puerto Rico/8/1934 H1N1)) (UniProt P03431+P40337); experiment: PROTAC activity at Influenza A virus A/WSN/33(H1N1) flag tagged Polymerase basic protein 1/VHL (unknown origin) expressed in HEK293T cells assessed as degradation of PB1 expression at 1 ug/ml incubated for 24 hrs by Western blotting analysis; format: cell-based; conditions: dose 1.0 µg/ml
[6] = target: T2, von Hippel-Lindau disease tumor suppressor/Polymerase basic protein 1 (Influenza A virus (strain A/Puerto Rico/8/1934 H1N1)); experiment: PROTAC activity at Influenza A virus A/WSN/33(H1N1) flag tagged Polymerase basic protein 1/VHL (unknown origin) expressed in HEK293T cells assessed as degradation of PB1 expression at 10 ug/ml incubated for 24 hrs by Western blotting analysis; format: cell-based; conditions: dose 10.0 µg/ml
[7] = target: T1, von Hippel-Lindau disease tumor suppressor/Polymerase basic protein 2 (Influenza A virus (strain A/Puerto Rico/8/1934 H1N1)); experiment: PROTAC activity at Influenza A virus A/WSN/33(H1N1) flag tagged Polymerase basic protein 2/VHL (unknown origin) expressed in HEK293T cells assessed as degradation of PB2 expression at 1 ug/ml incubated for 24 hrs by Western blotting analysis; format: cell-based; conditions: dose 1.0 µg/ml
[8] = Stability in human plasma assessed as compound remaining measured after 60 mins by LC-MS/MS analysis; format: ADME, cell-free; conditions: read-out: Stability
[9] = Stability in human plasma assessed as compound remaining by LC-MS/MS analysis; format: ADME, cell-free
[10] = Stability in human plasma assessed as compound remaining measured after 120 mins by LC-MS/MS analysis; format: ADME, cell-free; conditions: 2 h, BLD = below limit of detection
[11] = Stability in human plasma assessed as compound remaining measured after 5 mins by LC-MS/MS analysis; format: ADME, cell-free; conditions: read-out: Stability
[12] = Stability in human plasma assessed as compound remaining measured after 30 mins by LC-MS/MS analysis; format: ADME, cell-free; conditions: 0.5 h, BLD = below limit of detection
[13] = Half life in human plasma by LC-MS/MS analysis; format: ADME, cell-free
[14] = Stability in human plasma assessed as compound remaining measured after 15 mins by LC-MS/MS analysis; format: ADME, cell-free; conditions: 0.25 h, BLD = below limit of detection
[15] = target: T3, von Hippel-Lindau disease tumor suppressor/Polymerase acidic protein (Influenza A virus (A/Puerto Rico/8/1934(H1N1))) (UniProt P03433+P40337); experiment: PROTAC activity at Influenza A virus A/WSN/33(H1N1) flag tagged Polymerase acidic protein/VHL (unknown origin) expressed in HEK293T cells assessed as degradation of PA expression at 10 uM incubated for 24 hrs by Western blotting analysis; format: cell-based
[16] = target: T3, von Hippel-Lindau disease tumor suppressor/Polymerase acidic protein (Influenza A virus (A/Puerto Rico/8/1934(H1N1))); experiment: PROTAC activity at Influenza A virus A/WSN/33(H1N1) flag tagged Polymerase acidic protein/VHL (unknown origin) expressed in HEK293T cells assessed as degradation of PA expression at 5 uM incubated for 24 hrs by Western blotting analysis; format: cell-based
Influenza B virus [17] = experiment: Anti-influenza activity against Influenza B virus Victoria/2/87 infected in HEK293T cells assessed as reduction in virus-induced cytopathic effect incubated for 48 hrs by CCK-8 assay; format: functional, organism-based; conditions: Victoria/2/87, HEK-293T
Influenza A virus [18] = experiment: Anti-influenza activity against Influenza A virus H3N2 infected in HEK293T cells assessed as reduction in virus-induced cytopathic effect incubated for 48 hrs by CCK-8 assay; format: functional, organism-based; conditions: H3N2, HEK-293T
Influenza B virus [19] = experiment: Anti-influenza activity against Influenza B virus Yamagata/16/88 infected in HEK293T cells assessed as reduction in virus-induced cytopathic effect incubated for 48 hrs by CCK-8 assay; format: functional, organism-based; conditions: Yamagata/16/88, HEK-293T
[20] = Hepatic extraction ratio in dog liver microsomes preincubated for 5 mins followed by NADPH addition and measured for 45 mins by LC-MS analysis; format: ADME, Canis lupus familiaris, Microsome; conditions: time 50 min, read-out: ERH
[21] = Hepatic extraction ratio in mouse liver microsomes preincubated for 5 mins followed by NADPH addition and measured for 45 mins by LC-MS analysis; format: ADME, Microsome; conditions: time 50 min, read-out: ERH
[22] = Hepatic extraction ratio in human liver microsomes preincubated for 5 mins followed by NADPH addition and measured for 45 mins by LC-MS analysis; format: ADME, Microsome; conditions: time 50 min, read-out: ERH

T1 sequence (P03428 whole entry, looked up): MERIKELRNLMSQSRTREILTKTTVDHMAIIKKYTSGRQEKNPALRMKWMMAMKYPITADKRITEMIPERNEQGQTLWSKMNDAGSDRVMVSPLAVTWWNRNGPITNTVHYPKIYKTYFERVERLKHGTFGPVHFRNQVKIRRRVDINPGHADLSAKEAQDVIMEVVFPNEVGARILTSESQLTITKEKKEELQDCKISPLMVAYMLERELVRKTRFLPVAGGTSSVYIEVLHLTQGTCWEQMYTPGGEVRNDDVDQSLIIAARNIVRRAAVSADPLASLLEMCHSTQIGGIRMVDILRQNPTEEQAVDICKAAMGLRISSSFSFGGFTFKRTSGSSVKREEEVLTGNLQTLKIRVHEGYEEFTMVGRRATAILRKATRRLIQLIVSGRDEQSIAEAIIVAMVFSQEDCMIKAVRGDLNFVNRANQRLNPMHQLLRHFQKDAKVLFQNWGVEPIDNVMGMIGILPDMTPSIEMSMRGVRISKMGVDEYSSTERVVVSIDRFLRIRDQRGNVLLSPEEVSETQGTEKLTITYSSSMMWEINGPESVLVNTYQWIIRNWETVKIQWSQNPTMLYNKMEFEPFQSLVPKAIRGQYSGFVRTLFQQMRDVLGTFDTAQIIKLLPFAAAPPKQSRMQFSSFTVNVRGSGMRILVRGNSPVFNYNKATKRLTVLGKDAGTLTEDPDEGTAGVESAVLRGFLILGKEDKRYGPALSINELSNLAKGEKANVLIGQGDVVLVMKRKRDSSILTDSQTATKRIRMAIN
T1 sequence (P40337 whole entry, looked up): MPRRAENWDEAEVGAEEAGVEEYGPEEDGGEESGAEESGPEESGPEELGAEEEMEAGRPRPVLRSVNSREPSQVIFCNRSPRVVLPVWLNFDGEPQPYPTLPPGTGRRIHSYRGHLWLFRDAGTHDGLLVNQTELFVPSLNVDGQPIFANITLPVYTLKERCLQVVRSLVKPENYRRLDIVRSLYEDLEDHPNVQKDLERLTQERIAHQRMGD
T2 sequence (P03431 whole entry, looked up): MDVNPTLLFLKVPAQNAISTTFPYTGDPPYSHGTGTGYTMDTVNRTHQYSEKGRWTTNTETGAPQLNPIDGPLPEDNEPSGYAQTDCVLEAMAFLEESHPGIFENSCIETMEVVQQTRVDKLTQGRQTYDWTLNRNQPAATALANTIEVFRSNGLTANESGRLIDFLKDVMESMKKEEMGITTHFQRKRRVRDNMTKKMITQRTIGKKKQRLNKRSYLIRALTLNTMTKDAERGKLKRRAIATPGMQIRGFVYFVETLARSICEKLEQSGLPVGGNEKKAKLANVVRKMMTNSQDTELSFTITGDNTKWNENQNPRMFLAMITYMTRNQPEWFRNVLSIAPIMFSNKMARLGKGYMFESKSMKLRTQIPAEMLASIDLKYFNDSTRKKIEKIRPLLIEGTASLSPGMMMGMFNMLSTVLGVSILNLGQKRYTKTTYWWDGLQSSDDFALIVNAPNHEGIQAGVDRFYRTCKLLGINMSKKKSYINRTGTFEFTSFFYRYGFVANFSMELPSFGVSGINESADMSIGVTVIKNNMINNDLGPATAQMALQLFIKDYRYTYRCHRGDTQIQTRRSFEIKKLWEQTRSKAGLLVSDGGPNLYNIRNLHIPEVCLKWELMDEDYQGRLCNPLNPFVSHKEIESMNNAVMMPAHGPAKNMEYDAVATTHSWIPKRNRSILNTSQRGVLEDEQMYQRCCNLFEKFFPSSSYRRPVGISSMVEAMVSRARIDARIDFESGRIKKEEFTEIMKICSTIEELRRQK
T2 sequence (P40337 whole entry, looked up): as the sequence (P40337 whole entry, looked up) above

SMILES | Activity [1] | selectivity ratio [2] | EC50 (Influenza A virus [3]) | CC50 at 48 h [4] | Activity [5] | Activity [6] | Activity [7] | other results
CC(C)(C)OC(=O)NCCCC[C@H](NC(=O)OC(C)(C)C)C(=O)NCCCCCCCCCCCC(=O)Nc1ccc(NC(=S)NC(=O)c2ccc(C(C)(C)C)cc2)cc1 | inactive | > 187 | 534 nM | > 100000 nM | inactive | inactive | inactive | 
CCN(CC)CCOC(=O)c1ccc(N)cc1 [PROCAINE] |  |  |  |  |  |  |  | remaining at 1 h [8]: 0.1%; Stability [9]: 100%; Stability [10]: Bld; remaining at 5 min [11]: 4.49%; Stability [12]: Bld; half-life [13]: 1.12 min; Stability [14]: Bld
CC(C)(C)OC(=O)NCCCC[C@H](NC(=O)OC(C)(C)C)C(=O)NCCCCCCCCCC(=O)Nc1ccc(NC(=S)NC(=O)c2ccc(C(C)(C)C)cc2)cc1 | inactive | > 2220 | 45 nM | > 100000 nM | inactive | inactive | inactive | Activity [15]: Active
CC(C)(C)OC(=O)NCCCC[C@H](NC(=O)OC(C)(C)C)C(=O)NCCCCCCCCCCC(=O)Nc1ccc(NC(=S)NC(=O)c2ccc(C(C)(C)C)cc2)cc1 | inactive | 400 | 186 nM | 74500 nM | inactive | inactive | inactive | Activity [15]: Active
CC(C)(C)OC(=O)N[C@@H](Cc1c[nH]c2ccccc12)C(=O)NCCCCCC(=O)Nc1ccc(NC(=S)NC(=O)c2ccc(C(C)(C)C)cc2)cc1 | inactive | > 291 | 344 nM | > 100000 nM | inactive | inactive | inactive | 
CC(C)(C)OC(=O)N[C@@H](Cc1c[nH]c2ccccc12)C(=O)NCCCCCCC(=O)Nc1ccc(NC(=S)NC(=O)c2ccc(C(C)(C)C)cc2)cc1 | inactive | > 592 | 169 nM | > 100000 nM | inactive | inactive | inactive | 
CC(C)(C)c1ccc(C(=O)NC(=S)Nc2ccc(NC(=O)CCCCCCCNC(=O)[C@@H](N)Cc3cnc[nH]3)cc2)cc1 |  |  |  |  |  |  |  | Activity [16]: inactive
CC(C)(C)OC(=O)/N=C(\NCCC[C@H](NC(=O)OC(C)(C)C)C(=O)NCCCCCCCC(=O)Nc1ccc(NC(=S)NC(=O)c2ccc(C(C)(C)C)cc2)cc1)NC(=O)OC(C)(C)C | inactive | > 267 | 374 nM | > 100000 nM | inactive | inactive | inactive | 
CC(C)(C)c1ccc(C(=O)NC(=S)Nc2ccc(NC(=O)CCCCCCCN)cc2)cc1 |  |  | > 43000 nM |  |  |  |  | 
CC(C)(C)c1ccc(C(=O)NC(=S)Nc2ccc(NC(=O)CCCCCCCNC(=O)[C@@H](N)CC(N)=O)cc2)cc1 |  |  |  |  |  |  |  | Activity [16]: inactive
CC(C)(C)c1ccc(C(=O)NC(=S)Nc2ccc(NC(=O)CCCCCCCCCN)cc2)cc1 |  | 21.1 | 298 nM | < 6290 nM |  |  |  | 
NC(=O)c1nc(F)cnc1O [FAVIPIRAVIR] |  | > 18.1 | 8290 nM | > 100000 nM |  |  |  | EC50 (Influenza B virus [17]): > 10000 nM; EC50 (Influenza A virus [18]): > 10000 nM; EC50 (Influenza B virus [19]): > 10000 nM
CC(C)(C)OC(=O)N[C@@H](Cc1c[nH]c2ccccc12)C(=O)NCCCCCCCCCCC(=O)Nc1ccc(NC(=S)NC(=O)c2ccc(C(C)(C)C)cc2)cc1 | inactive | 109 | 383 nM | 41800 nM | inactive | inactive | inactive | 
CC(C)(C)OC(=O)NCCCC[C@H](NC(=O)OC(C)(C)C)C(=O)NCCOCCOCC(=O)Nc1ccc(NC(=S)NC(=O)c2ccc(C(C)(C)C)cc2)cc1 |  |  | > 25000 nM |  |  |  |  | 
CC(C)(C)OC(=O)N[C@@H](Cc1c[nH]c2ccccc12)C(=O)NCCCC(=O)Nc1ccc(NC(=S)NC(=O)c2ccc(C(C)(C)C)cc2)cc1 | inactive | 167 | 572 nM | 95400 nM | inactive | inactive | inactive | 
CC(C)(C)OC(=O)NCCCC[C@H](NC(=O)OC(C)(C)C)C(=O)NCCCCCCC(=O)Nc1ccc(NC(=S)NC(=O)c2ccc(C(C)(C)C)cc2)cc1 | inactive | > 1330 | 75 nM | > 100000 nM | inactive | inactive | inactive | Activity [15]: Active
CCCCCCCCNC(=O)[C@H](CCCCNC(=O)OC(C)(C)C)NC(=O)OC(C)(C)C |  |  |  |  |  |  |  | Activity [16]: inactive
CC(C)(C)OC(=O)N[C@@H](Cc1c[nH]c2ccccc12)C(=O)NCCCCCCCCCCCC(=O)Nc1ccc(NC(=S)NC(=O)c2ccc(C(C)(C)C)cc2)cc1 | inactive | > 103 | 974 nM | > 100000 nM | inactive | inactive | inactive | 
CC(C)(C)OC(=O)N[C@@H](Cc1c[nH]c2ccccc12)C(=O)NCCCCCCCC(=O)Nc1ccc(NC(=S)NC(=O)c2ccc(C(C)(C)C)cc2)cc1 | inactive | > 2330 | 43 nM | > 100000 nM | inactive | inactive | inactive | 
CC(C)(C)OC(=O)N[C@@H](Cc1c[nH]c2ccccc12)C(=O)NCCCCCCCCCC(=O)Nc1ccc(NC(=S)NC(=O)c2ccc(C(C)(C)C)cc2)cc1 | inactive | > 1560 | 64 nM | > 100000 nM | inactive | inactive | inactive | Activity [15]: Active
O=C(c1ccc(F)cc1)C1CCN(CCn2c(=O)[nH]c3ccccc3c2=O)CC1 [KETANSERIN] |  |  |  |  |  |  |  | hepatic extraction ratio at 0.75 h [20]: 0.697; hepatic extraction ratio at 0.75 h [21]: 0.765; hepatic extraction ratio at 0.75 h [22]: 0.693
CC(C)(C)OC(=O)N[C@@H](Cc1c[nH]c2ccccc12)C(=O)Nc1ccc(NC(=S)NC(=O)c2ccc(C(C)(C)C)cc2)cc1 | inactive | > 246 | 407 nM | > 100000 nM | inactive | inactive | inactive | 
CC(C)(C)c1ccc(C(=O)NC(=S)Nc2ccc(NC(=O)CCCCCCCCN)cc2)cc1 |  | 17.7 | 365 nM | 6470 nM |  |  |  | 
CC(C)(C)c1ccc(C(=O)NC(=S)Nc2ccc(NC(=O)CCCCCCN)cc2)cc1 |  |  | > 44000 nM |  |  |  |  | 
